12 molecules from PubChem BioAssay (NCI) can be followed below.

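A five-concentration, 48-hour dose response in 96-well plates underlies each endpoint, interpolated linearly between surrounding concentrations. TGI denotes the concentration required for complete inhibition of growth.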 Some results are limits rather than exact numbers.

The term TGI denotes the concentration at which net growth stops.

Test systems include CCRF-CEM leukemia; HCT-116 colon; KM12 colon; MALME-3M melanoma; MCF7 breast; MDA-N; NCI-H522 lung; OVCAR-4 ovarian; OVCAR-5 ovarian; PC-3 prostate; SK-MEL-2 melanoma; SNB-19 CNS; SNB-75 CNS.
Common to all, as to assay: DTP human tumour cell line panel, 48 h

Consider `CC(=O)N[C@@H](Cc1ccc(O)cn1)C(=O)NCc1cccc(F)c1`, for which the TGI in the assay with CCRF-CEM leukemia, in the assay with HCT-116 colon, in the assay on KM12 colon, with MALME-3M melanoma, with MCF7 breast and in the assay with MDA-N was over 100 µM each time. Besides, the TGI in the assay on NCI-H522 lung, with OVCAR-4 ovarian, with OVCAR-5 ovarian, in the assay on PC-3 prostate, in the assay with SK-MEL-2 melanoma and in the assay on SNB-19 CNS was over 100 µM throughout.
As for `COC(=O)Cc1c([C@@H]2Nc3ccccc3[C@H]2CC(=O)OC)[nH]c2ccccc12`, the TGI in the assay with CCRF-CEM leukemia, with HCT-116 colon, in the assay on MCF7 breast, in the assay with MDA-N, in the assay with OVCAR-4 ovarian and with OVCAR-5 ovarian was over 100 µM in each case. Moreover, the TGI is over 100 µM in the assay with PC-3 prostate, 34.8 µM in the assay on SK-MEL-2 melanoma, over 100 µM in the assay on SNB-19 CNS and over 100 µM in the assay on SNB-75 CNS.
As for `N#Cc1[nH]c(=O)n(-c2ccc([N+](=O)[O-])cc2)c1N`, the TGI in the assay on CCRF-CEM leukemia, in the assay on HCT-116 colon, in the assay on MALME-3M melanoma, with MDA-N, with NCI-H522 lung and in the assay with OVCAR-4 ovarian was over 10 µM throughout. Moreover, the TGI with OVCAR-5 ovarian, in the assay on PC-3 prostate, in the assay on SK-MEL-2 melanoma, in the assay with SNB-19 CNS and with SNB-75 CNS was over 10 µM each time.
For `N/C(CC/C(N)=N\O)=N\O`, the TGI with HCT-116 colon, in the assay on KM12 colon, in the assay on MALME-3M melanoma, in the assay with MDA-N, in the assay on NCI-H522 lung and in the assay with OVCAR-4 ovarian was over 100 µM throughout. For the same molecule, the TGI in the assay on OVCAR-5 ovarian, in the assay on PC-3 prostate, in the assay on SK-MEL-2 melanoma, with SNB-19 CNS and with SNB-75 CNS was over 100 µM throughout.
Regarding `O=c1cnn(C2OC(CO)C(O)C(F)C2O)c(=O)[nH]1` (stereo not drawn), the TGI in the assay with CCRF-CEM leukemia, in the assay on HCT-116 colon, in the assay on KM12 colon, in the assay on MALME-3M melanoma, in the assay on MCF7 breast and in the assay on MDA-N was over 100 µM in each case. In addition, the TGI in the assay with NCI-H522 lung, in the assay with OVCAR-4 ovarian, in the assay with OVCAR-5 ovarian, in the assay with PC-3 prostate, in the assay on SK-MEL-2 melanoma and in the assay with SNB-19 CNS was over 100 µM each time.
For the molecule `C/C(=N\Nc1nc2cc(C)ccc2s1)c1ccccn1`, the TGI is over 100 µM with CCRF-CEM leukemia; 12.6 µM with KM12 colon; over 22 µM in the assay with MALME-3M melanoma; over 100 µM in the assay with MDA-N; over 19.9 µM in the assay on NCI-H522 lung; over 60.5 µM with OVCAR-4 ovarian. In addition, the TGI was 19.9 µM in the assay with OVCAR-5 ovarian; over 23.1 µM with PC-3 prostate; 1.35 µM with SK-MEL-2 melanoma; 21.2 µM in the assay on SNB-19 CNS; 22.7 µM in the assay with SNB-75 CNS.
On to `CCOn1cc(C[C@@]2(O)C(=O)OC3[C@@H](O)CO[C@@]32O)c2ccccc21` (stereo partly drawn), for which the TGI with CCRF-CEM leukemia, in the assay with HCT-116 colon, in the assay with KM12 colon, in the assay on MALME-3M melanoma, in the assay with MCF7 breast and in the assay on NCI-H522 lung was over 100 µM in each case. Besides, the TGI with OVCAR-4 ovarian, with OVCAR-5 ovarian, in the assay with PC-3 prostate, in the assay on SK-MEL-2 melanoma, in the assay on SNB-19 CNS and in the assay on SNB-75 CNS was over 100 µM throughout.
For the molecule `[N-]=N[N+]#I1OC(C(F)(F)F)(C(F)(F)F)c2ccccc21`, the TGI in the assay on CCRF-CEM leukemia turned out to be 47.2 µM; in the assay on HCT-116 colon it was 38.2 µM; in the assay on KM12 colon it was 29 µM; with MCF7 breast, 27.3 µM; in the assay with NCI-H522 lung it was 30.5 µM; with OVCAR-4 ovarian it was 28.9 µM. The TGI in the assay on OVCAR-5 ovarian is 28.5 µM; in the assay on PC-3 prostate, 30.1 µM; with SK-MEL-2 melanoma, 32 µM; in the assay with SNB-19 CNS, over 100 µM; with SNB-75 CNS, 32.5 µM.
Consider `CCOC(=O)CC(C)C(C#N)(OP1(=O)OC(c2ccccc2)C(C)N1C)c1ccccc1` (stereo not drawn), for which the TGI in the assay with CCRF-CEM leukemia, in the assay on HCT-116 colon, with KM12 colon, in the assay on MALME-3M melanoma, in the assay with MCF7 breast and with MDA-N was over 100 µM in each case. Further, the TGI in the assay on NCI-H522 lung, with OVCAR-5 ovarian, in the assay on PC-3 prostate, in the assay with SK-MEL-2 melanoma and with SNB-19 CNS was over 100 µM each time.
With `Nc1c(Br)cc(-c2cc(Br)c(N)c(Br)c2)cc1Br`, the TGI in the assay with CCRF-CEM leukemia, with HCT-116 colon, in the assay on KM12 colon, in the assay on MALME-3M melanoma, with MCF7 breast and in the assay with MDA-N was over 100 µM each time. Further, the TGI in the assay on NCI-H522 lung, in the assay with OVCAR-4 ovarian, with OVCAR-5 ovarian, in the assay on PC-3 prostate, with SNB-19 CNS and in the assay on SNB-75 CNS was over 100 µM throughout.
In the case of `COC(=O)[C@]1(C)CCCn2c(=O)n(-c3ccccc3)c(=O)n21`, the TGI in the assay on CCRF-CEM leukemia, with HCT-116 colon, in the assay with KM12 colon, in the assay on MCF7 breast, with NCI-H522 lung and in the assay on OVCAR-4 ovarian was over 100 µM in each case. Further, the TGI in the assay on OVCAR-5 ovarian, with PC-3 prostate, in the assay on SK-MEL-2 melanoma, in the assay on SNB-19 CNS and in the assay on SNB-75 CNS was over 100 µM each time.
For the molecule `COC(=O)c1ccc(CN2CCc3c([nH]c4ccccc34)C2CO)o1` (stereo not drawn), the TGI with CCRF-CEM leukemia, with KM12 colon, in the assay on MALME-3M melanoma, with MCF7 breast, with MDA-N and in the assay on NCI-H522 lung was over 10 µM throughout. Also, the TGI with OVCAR-4 ovarian, in the assay on PC-3 prostate and with SNB-75 CNS was over 10 µM each time.
